Test results reported in US11492335B2, “Aryl or heteroaryl triazolone derivatives or salts thereof, or pharmaceutical compositions comprising the same” (YUHAN CORPORATION, priority 2018, dated 2022).
Where a name gives a salt, the structure may show the parent alone.

Legend:
Type in all cases: biochemical
[1] = target: T1, recombinant human DAO (diamine oxidase) (Homo sapiens, UniProt P19801); assay: Activity on recombinant human DAO, Amplex Red method, 1 mM putrescine substrate; details: recombinant human DAO, 1 mM putrescine substrate; read-out: Inhibitory Activity (IC50, nM) DAO
T1 construct: purchased R&D systems
T1 sequence (P19801 20-751): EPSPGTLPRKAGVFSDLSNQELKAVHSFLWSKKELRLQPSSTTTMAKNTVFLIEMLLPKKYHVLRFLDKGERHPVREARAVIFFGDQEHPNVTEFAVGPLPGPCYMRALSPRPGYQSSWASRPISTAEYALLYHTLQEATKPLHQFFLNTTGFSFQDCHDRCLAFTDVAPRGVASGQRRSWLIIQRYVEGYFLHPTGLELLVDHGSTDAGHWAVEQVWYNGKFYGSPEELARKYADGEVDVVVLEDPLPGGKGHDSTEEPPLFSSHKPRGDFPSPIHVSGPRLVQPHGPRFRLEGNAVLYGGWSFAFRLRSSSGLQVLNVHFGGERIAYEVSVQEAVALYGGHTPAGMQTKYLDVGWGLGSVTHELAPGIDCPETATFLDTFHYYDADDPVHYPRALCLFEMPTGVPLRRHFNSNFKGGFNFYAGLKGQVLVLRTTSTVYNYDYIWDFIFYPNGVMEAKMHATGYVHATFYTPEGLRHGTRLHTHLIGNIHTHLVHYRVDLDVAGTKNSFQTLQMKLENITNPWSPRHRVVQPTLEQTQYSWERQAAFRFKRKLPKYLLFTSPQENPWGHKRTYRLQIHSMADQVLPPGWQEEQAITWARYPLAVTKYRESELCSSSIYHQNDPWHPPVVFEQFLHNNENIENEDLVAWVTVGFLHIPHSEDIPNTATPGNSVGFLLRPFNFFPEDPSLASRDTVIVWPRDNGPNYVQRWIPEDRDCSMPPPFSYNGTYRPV
Outline: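 Inhibition of recombinant human DAO (diamine oxidase, R&D systems) was assessed with the Amplex Red Hydrogen Peroxide Assay Kit. Hydrogen peroxide produced from 1 mM putrescine was detected through an HRP-coupled reaction that converts Amplex Red into fluorescent resorufin, read at 544 nm excitation and 590 nm emission. IC50 values came from four-parameter logistic fits in GraphPad Prism.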

[2] = target: T2, recombinant human MAO-A (monoamine oxidase-A) (Homo sapiens, UniProt P21397); assay: Activity on recombinant human MAO-A, Amplex Red method, 0.5 mM tyramine substrate; details: 0.5 mM tyramine substrate, read-out: Inhibitory Activity (IC50, nM) MAO-A
T2 construct: purchased Sigma-Aldrich
T2 sequence (P21397 1-527): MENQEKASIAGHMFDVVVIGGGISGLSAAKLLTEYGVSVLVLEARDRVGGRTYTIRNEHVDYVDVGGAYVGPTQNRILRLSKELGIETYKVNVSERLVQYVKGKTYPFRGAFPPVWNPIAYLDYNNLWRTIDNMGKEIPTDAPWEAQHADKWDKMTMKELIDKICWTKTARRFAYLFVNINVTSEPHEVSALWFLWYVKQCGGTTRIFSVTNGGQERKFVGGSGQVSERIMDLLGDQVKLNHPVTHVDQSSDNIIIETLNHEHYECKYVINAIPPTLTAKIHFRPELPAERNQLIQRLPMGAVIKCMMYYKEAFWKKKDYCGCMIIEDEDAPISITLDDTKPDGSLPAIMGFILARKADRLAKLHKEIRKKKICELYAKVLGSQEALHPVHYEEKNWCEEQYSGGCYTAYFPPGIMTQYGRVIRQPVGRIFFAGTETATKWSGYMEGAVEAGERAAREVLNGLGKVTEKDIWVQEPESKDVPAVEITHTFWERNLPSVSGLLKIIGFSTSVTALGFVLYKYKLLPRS
Outline: (§1)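 8-point, 1:3 dose-response, four-parameter logistic IC50 from reduction in fluorescence rate versus DMSO control. HRP/Amplex Red detection of H2O2 (ex 544, em 590 nm) after 30 min, 37 °C compound–enzyme preincubation in pH 7.4 phosphate buffer. MAO-A substrate: 0.5 mM tyramine; MAO-B: 1 mM benzylamine.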

[3] = target: T3, recombinant human MAO-B (monoamine oxidase-B) (Homo sapiens, UniProt P27338); assay: Activity on recombinant human MAO-B, Amplex Red method, 1 mM benzylamine substrate; details: 1 mM benzylamine substrate, read-out: Inhibitory Activity (IC50, nM) MAO-B
T3 construct: purchased Sigma-Aldrich
T3 sequence (P27338 1-520): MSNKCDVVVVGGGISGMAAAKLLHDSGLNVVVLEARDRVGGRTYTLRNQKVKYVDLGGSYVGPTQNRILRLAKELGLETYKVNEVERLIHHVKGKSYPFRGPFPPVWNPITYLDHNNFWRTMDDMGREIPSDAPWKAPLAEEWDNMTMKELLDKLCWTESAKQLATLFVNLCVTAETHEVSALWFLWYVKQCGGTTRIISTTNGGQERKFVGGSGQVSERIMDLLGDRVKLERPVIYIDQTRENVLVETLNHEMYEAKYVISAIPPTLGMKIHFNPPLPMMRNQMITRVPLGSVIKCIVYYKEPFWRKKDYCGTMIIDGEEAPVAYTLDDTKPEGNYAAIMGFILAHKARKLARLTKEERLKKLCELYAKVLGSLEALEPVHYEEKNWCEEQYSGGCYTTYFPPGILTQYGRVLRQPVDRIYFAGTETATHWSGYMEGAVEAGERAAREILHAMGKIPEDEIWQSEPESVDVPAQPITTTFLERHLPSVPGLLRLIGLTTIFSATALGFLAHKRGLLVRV
Outline: as §1

[4] = target: T4, recombinant human VAP-1 (Homo sapiens, UniProt Q16853); assay: Activity on recombinant human VAP-1, Amplex Red HRP-coupled hydrogen peroxide assay, benzylamine substrate; details: recombinant human VAP-1, benzylamine substrate; read-out: Inhibitory Activity (IC50, nM) human VAP-1
T4 construct: purchased R&D systems
T4 sequence (Q16853 1-763): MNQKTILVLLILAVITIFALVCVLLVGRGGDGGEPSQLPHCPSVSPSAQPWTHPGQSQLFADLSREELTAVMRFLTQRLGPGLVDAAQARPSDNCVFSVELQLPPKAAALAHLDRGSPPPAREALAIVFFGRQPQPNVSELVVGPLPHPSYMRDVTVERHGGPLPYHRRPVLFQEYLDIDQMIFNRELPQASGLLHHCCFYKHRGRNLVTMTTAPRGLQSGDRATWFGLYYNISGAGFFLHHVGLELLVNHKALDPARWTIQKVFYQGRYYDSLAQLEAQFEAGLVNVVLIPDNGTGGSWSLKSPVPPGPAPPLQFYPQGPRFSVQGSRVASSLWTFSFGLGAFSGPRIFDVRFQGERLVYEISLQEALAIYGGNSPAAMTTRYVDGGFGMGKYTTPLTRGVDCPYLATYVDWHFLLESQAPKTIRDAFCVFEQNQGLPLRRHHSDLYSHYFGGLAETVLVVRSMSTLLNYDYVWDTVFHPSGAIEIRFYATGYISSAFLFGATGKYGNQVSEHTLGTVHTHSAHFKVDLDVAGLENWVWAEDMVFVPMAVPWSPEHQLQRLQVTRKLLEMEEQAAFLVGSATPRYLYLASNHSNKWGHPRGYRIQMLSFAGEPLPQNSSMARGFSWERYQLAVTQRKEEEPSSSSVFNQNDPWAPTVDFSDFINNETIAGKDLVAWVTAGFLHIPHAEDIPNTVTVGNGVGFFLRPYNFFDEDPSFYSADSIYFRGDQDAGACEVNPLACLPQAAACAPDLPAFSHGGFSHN
Outline: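 Compounds were preincubated with purified enzyme in 50 mM sodium phosphate pH 7.4 at 37 °C for 30 min, then 200 uM Amplex Red, 1 mM benzylamine and 1 U/mL HRP were added. Resorufin fluorescence (ex 544/em 590 nm) was followed over 1-2 h; IC50 came from 4-parameter fits of signal-rate inhibition.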

Row | Structure (SMILES) | IC50 [1] | IC50 [2] | IC50 [3] | IC50 [4]
1 | NC/C(=C\F)Cn1ncn(-c2cccc(C#Cc3cnc4c(c3)OCCN4)n2)c1=O [Example 252, 2-[(E)-2-(aminomethyl)-3-fluoro-allyl]-4-[6-[2-(3,4-dihydro-2H-pyrido[3,2-b][1,4]oxazin-7-yl)ethynyl]-2-pyridyl]-1,2,4-triazol-3-one] | 53 nM | > 100000 nM | > 10000 nM | 0.6 nM
2 | NC/C(=C\F)Cn1ncn(-c2cccc(C#Cc3ccc4c(n3)OCCN4)n2)c1=O [Example 253, 2-[(E)-2-(aminomethyl)-3-fluoro-allyl]-4-[6-[2-(2,3-dihydro-1H-pyrido[2,3-b][1,4]oxazin-6-yl)ethynyl]-2-pyridyl]-1,2,4-triazol-3-one] | 34 nM | > 100000 nM | > 10000 nM | 0.5 nM
3 | NC/C(=C\F)Cn1ncn(-c2cccc(C#Cc3ccc4c(c3)CCC(=O)N4)n2)c1=O [Example 254, 6-[2-[6-[1-[(E)-2-(aminomethyl)-3-fluoro-allyl]-5-oxo-1,2,4-triazol-4-yl]-2-pyridyl]ethynyl]-3,4-dihydro-1H-quinolin-2-one] | 35 nM | > 100000 nM | > 10000 nM | 0.2 nM

Second part, the compound after the results:

Row | IC50 [1] | IC50 [2] | IC50 [3] | IC50 [4] | Structure (SMILES)
4 | 20 nM | > 100000 nM | 6100 nM | 0.2 nM | NC/C(=C\F)Cn1ncn(-c2cccc(C#Cc3cnc4c(c3)OCC(=O)N4)n2)c1=O [Example 255, 7-[2-[6-[1-[(E)-2-(aminomethyl)-3-fluoro-allyl]-5-oxo-1,2,4-triazol-4-yl]-2-pyridyl]ethynyl]-4H-pyrido[3,2-b][1,4]oxazin-3-one]
5 | 27 nM | > 100000 nM | > 10000 nM | 0.3 nM | Cn1cncc1C#Cc1cccc(-n2cnn(C/C(=C/F)CN)c2=O)n1 [Example 256, 2-[(E)-2-(aminomethyl)-3-fluoro-allyl]-4-[6-[2-(3-methylimidazol-4-yl)ethynyl]-2-pyridyl]-1,2,4-triazol-3-one]
6 | 90 nM | > 100000 nM | 5700 nM | 0.4 nM | Cn1cc(C#Cc2cccc(-n3cnn(C/C(=C/F)CN)c3=O)n2)cn1 [Example 257, 2-[(2E)-2-(aminomethyl)-3-fluoroprop-2-en-1-yl]-4-{6-[(1-methyl-1H-pyrazol-4-yl)ethynyl]pyridin-2-yl}-2,4-dihydro-3H-1,2,4-triazol-3-one hydrochloride]
7 | 1.3 nM | > 100000 nM | 59000 nM | 0.2 nM | NC/C(=C\F)Cn1ncn(-c2cccc(C#Cc3cnc4c(c3)NC(=O)CO4)n2)c1=O [Example 258, 7-[2-[6-[1-[(E)-2-(aminomethyl)-3-fluoro-allyl]-5-oxo-1,2,4-triazol-4-yl]-2-pyridyl]ethynyl]-1H-pyrido[2,3-b][1,4]oxazin-2-one]
8 | 29000 nM | > 100000 nM | > 100000 nM | 1.4 nM | Cc1cc(-c2ccc(N3CCNCC3)nc2)cnc1-n1cnn(C/C(=C/F)CN)c1=O [Example 259, 2-[(E)-2-(aminomethyl)-3-fluoro-allyl]-4-[3-methyl-5-(6-piperazin-1-yl-3-pyridyl)-2-pyridyl]-1,2,4-triazol-3-one]
